Test results taken from US8022072B2, “Azolylmethylidenehydrazine derivative and use thereof” (Kaken Pharmaceutical Co., Ltd., priority 2007, dated 2011).
Converted amounts (≈) assume the structure as drawn.

What was measured:
Format in all cases: cell-based
[1] = tested on: Malassezia furfur IFO-0656; assay: Antifungal activity evaluation test, MIC by urease activity, Malassezia furfur IFO-0656; conditions: IFO0656, 96 h, MU medium, 30° C., day 4 or 5, urease activity of 20% or below, read-out: MIC M. fur. IFO-0656
Protocol: (§1) The minimum inhibitory concentration (MIC) for Trichophyton mentagrophytes, Trichophyton rubrum, and Malassezia furfur was measured according to the following procedure. • Test compound solution: A test compound was dissolved in dimethyl sulfoxide (DMSO) at a concentration of 5 mg/mL as a stock solution. […] Then, as a test medium, a fungal solution of Trichophyton species was 100-fold diluted with Sabouraud Dextrose Broth (Difco), and a fungal solution of Malassezia furfur IFO-0656 was 100-fold diluted with MU medium to give each inoculum (2×10^4 cells/mL). • Measurement of MIC of Trichophyton fungi: Sabouraud Dextrose Broth (Difco) was dispensed by 100 μL to a given well of a 96 well flat microplate. Then, a test compound solution (2 μL) was added, and the mixture was thoroughly mixed with a plate mixer. A fungal solution (100 μL) was inoculated and cultured at 30° C. for 7 days. The presence or absence of the cell growth was visually observed, and the minimum medicament concentration at which the cell growth was prevented was taken as MIC (μg/mL). • Measurement of MIC of Malassezia furfur: Since the urease activity of this fungus and the fungus growth rate are co-related, MIC was evaluated by the following method using urease activity as an index. MU medium was dispensed by 100 μL to a given well of a 96 well flat microplate. Then, a test compound solution (2 μL) was added, and the mixture was thoroughly mixed with a plate mixer. A fungal solution (100 μL) was inoculated and cultured at 30° C. The culture was stopped on day 4 or 5 of culture when the color tone of the MU medium changes from yellow to red in visual observation of the fungus growth in a well free of addition of a test substance. Then the plate was stirred until the fungus became uniform, and the urease activity was measured based on the measurement of absorbance at 550 nm using a plate reader.

[2] = tested on: Trichophyton mentagrophytes SM-110; assay: Antifungal activity evaluation test, MIC, Trichophyton mentagrophytes SM-110; conditions: SM110, 168 h, Sabouraud Dextrose Broth, 30° C., 7 days, visual, read-out: MIC T. men. SM-110
Protocol: as §1

[3] = tested on: Trichophyton rubrum KD-101; assay: Antifungal activity evaluation test, MIC, Trichophyton rubrum KD-101; conditions: KD101, 168 h, Sabouraud Dextrose Broth, 30° C., 7 days, visual, read-out: MIC T. rub. KD-101
Protocol: as §1

[4] = tested on: Trichophyton mentagrophytes KD-04; assay: Influence of keratin addition on anti-Trichophyton activity; conditions: for MIC: Trichophyton mentagrophytes, KD04, 168 h, 30° C., 7 days; for MIC increase by the addition of keratin to medium: Trichophyton, text summary of Table 4
Protocol: The MIC increase rate by the addition of keratin to a medium was measured by the following procedure. • Test compound solution: A test compound was dissolved in dimethyl sulfoxide (DMSO) at a concentration of 5 mg/mL as a stock solution. Diluting this solution with DMSO, a 2-fold dilution series was prepared. • Test strain: Trichophyton mentagrophytes KD-04 was used. Preparation of Fungal Inoculum: the Above-Mentioned Strain was suspended in 0.05% Tween 80-containing physiological saline, and adjusted to a fungus concentration of 2×10^6 cells/mL using a counting chamber. […] The physiological saline was removed, and the mixture was further washed once with physiological saline (3 mL). The physiological saline was removed, and a test compound solution (10 μL) and Sabouraud Dextrose Broth (Difco) (500 μL) were added to keratin, and the mixture was sufficiently stirred. Then, inoculum (500 μL) of T. mentagrophytes KD-04 was added, and the mixture was cultured at 30° C. for 7 days. As a comparison control, an experiment similar to the above was performed under conditions free of keratin addition.

[5] = tested on: Trichophyton mentagrophytes KD-04; assay: Antifungal activity evaluation test, MIC, Trichophyton mentagrophytes KD-04; conditions: KD04, 168 h, Sabouraud Dextrose Broth, 30° C., 7 days, visual, read-out: MIC T. men. KD-04
Protocol: as §1

[6] = tested on: Trichophyton rubrum KD-107; assay: Antifungal activity evaluation test, MIC, Trichophyton rubrum KD-107; conditions: KD107, 168 h, Sabouraud Dextrose Broth, 30° C., 7 days, visual, read-out: MIC T. rub. KD-107
Protocol: as §1

| Compound | MIC [1] [µg/mL] | MIC [2] [µg/mL] | MIC [3] [µg/mL] | MIC ([4]; T. mentagrophytes KD-04, free of keratin addition, read-out: MIC SDB alone) [µg/mL] | MIC ([4]; T. mentagrophytes KD-04, keratin 50 mg added, read-out: MIC SDB + keratin) [µg/mL] | MIC [5] [µg/mL] | MIC [6] [µg/mL] | MIC increase by the addition of keratin to medium [4] [fold] |
| --- | --- | --- | --- | --- | --- | --- | --- | --- |
| CCC(C)(C)c1ccc(CC(C)CN2C[C@@H](C)O[C@@H](C)C2)cc1 (stereo partly shown) [AMF, amorolfine, reference compound] | 0.05 (≈ 0.157 µM) | 0.05 (≈ 0.157 µM) | 0.025 (≈ 0.0787 µM) | 0.05 (≈ 0.157 µM) | 0.39 | 0.1 (≈ 0.315 µM) | 0.025 (≈ 0.0787 µM) | – |
| CCCCCOc1cccnc1C(=NN(C)C)n1ccnc1 [Compound No. 95, N′-[1-imidazol-1-yl-1-(3-pentyloxypyridin-2-yl)methylidene]-N,N-dimethylhydrazine] | > 25 | 3.13 (≈ 10.4 µM) | 1.56 (≈ 5.18 µM) | – | – | 1.56 (≈ 5.18 µM) | 0.78 (≈ 2.59 µM) | – |
| CCCCCCn1cccc1C(=NN(C)C)n1ccnc1 [Compound No. 104, N′-[1-(1-hexylpyrrol-2-yl)-1-imidazol-1-ylmethylidene]-N,N-dimethylhydrazine] | > 25 | 0.05 (≈ 0.174 µM) | 0.025 (≈ 0.087 µM) | – | – | 0.025 (≈ 0.087 µM) | 0.025 (≈ 0.087 µM) | – |
| Fc1ccc(COc2ccccc2C(=NN2CCCC2)n2ccnc2)cc1 [Compound No. 158, [1-[2-(4-fluorobenzyloxy)phenyl]-1-imidazol-1-ylmethylidene]pyrrolidin-1-ylamine] | 1.56 (≈ 4.28 µM) | 0.2 (≈ 0.549 µM) | 0.2 (≈ 0.549 µM) | – | – | 0.2 (≈ 0.549 µM) | 0.1 (≈ 0.274 µM) | – |
| CCCCCOc1ccccc1C(=NN1CCCCC1)n1ccnc1 [Compound No. 173, [1-imidazol-1-yl-1-(2-pentyloxyphenyl)methylidene]piperidin-1-ylamine] | 0.39 (≈ 1.15 µM) | 0.2 (≈ 0.587 µM) | 0.1 (≈ 0.294 µM) | – | – | 0.2 (≈ 0.587 µM) | 0.1 (≈ 0.294 µM) | – |
| CCc1ccccc1C(=NN1CCCCCC1)n1ccnc1 [Compound No. 184, [1-(2-ethylphenyl)-1-imidazol-1-ylmethylidene]homopiperidin-1-ylamine] | 1.56 (≈ 5.26 µM) | 0.1 (≈ 0.337 µM) | 0.05 (≈ 0.169 µM) | – | – | 0.05 (≈ 0.169 µM) | 0.05 (≈ 0.169 µM) | – |
| CC(C)Oc1ccccc1C(=NN1CCCCCC1)n1ccnc1 [Compound No. 198, homopiperidin-1-yl-[1-imidazol-1-yl-1-(2-isopropoxyphenyl)methylidene]amine] | 0.78 (≈ 2.39 µM) | 0.2 (≈ 0.613 µM) | 0.2 (≈ 0.613 µM) | – | – | 0.1 (≈ 0.306 µM) | 0.1 (≈ 0.306 µM) | – |
| C=CCOc1ccccc1C(=NN1CCCCCC1)n1ccnc1 [Compound No. 200, homopiperidin-1-yl-[1-imidazol-1-yl-1-[2-(2-propenyloxy)phenyl]methylidene]amine] | 0.2 (≈ 0.616 µM) | 0.1 (≈ 0.308 µM) | 0.1 (≈ 0.308 µM) | – | – | 0.1 (≈ 0.308 µM) | 0.1 (≈ 0.308 µM) | – |
| CCCCCOc1ccc(OC)cc1C(=NN1CCCCCC1)n1ccnc1 [Compound No. 211, homopiperidin-1-yl-[1-imidazol-1-yl-1-(5-methoxy-2-pentyloxyphenyl)methylidene]amine] | 1.56 (≈ 4.06 µM) | 0.39 (≈ 1.01 µM) | 0.2 (≈ 0.52 µM) | – | – | 0.2 (≈ 0.52 µM) | 0.1 (≈ 0.26 µM) | – |
| CCC(C)(C)c1ccc(CC(C)CN2C[C@@H](C)O[C@@H](C)C2)cc1 (stereo partly shown) [amorolfine, reference compound] | – | – | – | – | – | – | – | 8 |
| CCC(C)n1ncn(-c2ccc(N3CCN(c4ccc(OCC5COC(Cn6cncn6)(c6ccc(Cl)cc6Cl)O5)cc4)CC3)cc2)c1=O (stereo not shown) [itraconazole, reference compound] | – | – | – | – | – | – | – | 512 |

The remaining lines, values ahead:

| MIC [1] [µg/mL] | MIC [2] [µg/mL] | MIC [3] [µg/mL] | MIC ([4]; T. mentagrophytes KD-04, free of keratin addition, read-out: MIC SDB alone) [µg/mL] | MIC ([4]; T. mentagrophytes KD-04, keratin 50 mg added, read-out: MIC SDB + keratin) [µg/mL] | MIC [5] [µg/mL] | MIC [6] [µg/mL] | MIC increase by the addition of keratin to medium [4] [fold] | Compound |
| --- | --- | --- | --- | --- | --- | --- | --- | --- |
| 25 (≈ 91.8 µM) | 0.2 (≈ 0.734 µM) | 0.78 (≈ 2.86 µM) | – | – | 0.2 (≈ 0.734 µM) | 0.2 (≈ 0.734 µM) | – | CC(C)Oc1ccccc1C(=NN(C)C)n1ccnc1 [Compound No. 19, N′-[1-imidazol-1-yl-1-(2-isopropoxyphenyl)methylidene]-N,N-dimethylhydrazine] |
| 0.39 (≈ 1.22 µM) | 0.1 (≈ 0.314 µM) | 0.05 (≈ 0.157 µM) | – | – | 0.05 (≈ 0.157 µM) | 0.05 (≈ 0.157 µM) | – | CCCCCOc1ccc(F)cc1C(=NN(C)C)n1ccnc1 [Compound No. 25, N′-[1-(3-fluoro-6-pentyloxyphenyl)-1-imidazol-1-ylmethylidene]-N,N-dimethylhydrazine] |
| 0.62 (≈ 1.94 µM) | 0.2 (≈ 0.624 µM) | 0.2 (≈ 0.624 µM) | – | – | 0.2 (≈ 0.624 µM) | 0.1 (≈ 0.312 µM) | – | CN(C)N=C(c1ccccc1OCc1ccccc1)n1ccnc1 [Compound No. 34, N′-[1-(2-benzyloxyphenyl)-1-imidazol-1-ylmethylidene]-N,N-dimethylhydrazine] |
| 0.78 (≈ 2.23 µM) | 0.39 (≈ 1.11 µM) | 0.2 (≈ 0.571 µM) | – | – | 0.2 (≈ 0.571 µM) | 0.1 (≈ 0.285 µM) | – | COc1cccc(COc2ccccc2C(=NN(C)C)n2ccnc2)c1 [Compound No. 53, N′-[1-imidazol-1-yl-1-[2-(3-methoxybenzyloxy)phenyl]methylidene]-N,N-dimethylhydrazine] |
| 0.2 (≈ 0.574 µM) | 0.1 (≈ 0.287 µM) | 0.05 (≈ 0.143 µM) | – | – | 0.05 (≈ 0.143 µM) | 0.025 (≈ 0.0717 µM) | – | CN(C)N=C(c1ccccc1OCCCc1ccccc1)n1ccnc1 [Compound No. 61, N′-[1-imidazol-1-yl-1-[2-(3-phenylpropoxy)phenyl]methylidene]-N,N-dimethylhydrazine] |
| > 25 | 0.39 (≈ 1.5 µM) | 0.39 (≈ 1.5 µM) | – | – | 0.39 (≈ 1.5 µM) | 0.39 (≈ 1.5 µM) | – | CSc1ccccc1C(=NN(C)C)n1ccnc1 [Compound No. 79, N′-[1-imidazol-1-yl-1-(2-methylthiophenyl)methylidene]-N,N-dimethylhydrazine] |
| 0.05 (≈ 0.136 µM) | 0.2 (≈ 0.546 µM) | 0.1 (≈ 0.273 µM) | – | – | 0.1 (≈ 0.273 µM) | 0.05 (≈ 0.136 µM) | – | CN(C)N=C(c1ccccc1SCCOc1ccccc1)n1ccnc1 [Compound No. 85, N′-[1-imidazol-1-yl-1-[2-(2-phenoxyethylthio)phenyl]methylidene]-N,N-dimethylhydrazine] |
| 0.78 (≈ 2.49 µM) | 0.1 (≈ 0.319 µM) | 0.05 (≈ 0.16 µM) | – | – | 0.05 (≈ 0.16 µM) | 0.05 (≈ 0.16 µM) | – | CCCCCN(C)c1ccccc1C(=NN(C)C)n1ccnc1 [Compound No. 87, N′-[1-imidazol-1-yl-1-[2-(N-methyl-N-pentylamino)phenyl]methylidene]-N,N-dimethylhydrazine] |
| 6.25 (≈ 17.8 µM) | 0.39 (≈ 1.11 µM) | 0.1 (≈ 0.285 µM) | – | – | 0.2 (≈ 0.571 µM) | 0.1 (≈ 0.285 µM) | – | CCCCCOc1ccc2ccccc2c1C(=NN(C)C)n1ccnc1 [Compound No. 93, N′-[1-imidazol-1-yl-1-(2-pentyloxynaphthalen-1-yl)methylidene]-N,N-dimethylhydrazine] |
| 0.39 (≈ 1.02 µM) | 0.2 (≈ 0.522 µM) | 0.1 (≈ 0.261 µM) | – | – | 0.1 (≈ 0.261 µM) | 0.05 (≈ 0.131 µM) | – | CCN(CC)N=C(c1ccccc1OCc1ccc(Cl)cc1)n1ccnc1 [Compound No. 118, N′-[1-[2-(4-chlorobenzyloxy)phenyl]-1-imidazol-1-ylmethylidene]-N,N-diethylhydrazine] |
| > 10 | 0.39 (≈ 1.13 µM) | 0.39 (≈ 1.13 µM) | – | – | 0.2 (≈ 0.579 µM) | 0.2 (≈ 0.579 µM) | – | CN(N=C(c1ccccc1Cl)n1ccnc1)c1ccc(Cl)cc1 [Compound No. 141, N-(4-chlorophenyl)-N′-[1-(2-chlorophenyl)-1-imidazol-1-ylmethylidene]-N-methylhydrazine] |
| 25 (≈ 69.4 µM) | 0.78 (≈ 2.16 µM) | 0.78 (≈ 2.16 µM) | – | – | 0.39 (≈ 1.08 µM) | 0.39 (≈ 1.08 µM) | – | c1ccc(Oc2ccccc2C(=NN2CCCCCC2)n2ccnc2)cc1 [Compound No. 212, homopiperidin-1-yl-[1-imidazol-1-yl-1-(2-phenoxyphenyl)methylidene]amine] |
